Test results from patent US20230002346A1, “NEW COMPOUNDS AND METHODS” (BenevolentAl Bio Limited, priority 2019, published 2023).
In brackets after ≈: the same amount, converted by molar mass.

Assays:
[1] = Rat PK profile (bioavailability, clearance, half-life); assay type: in vivo; settings: male, Sprague Dawley, plasma, i.v. dose 0.5 mg/kg
Description: Male Sprague Dawley Rats 300-350 g (Charles River, UK) were group housed, n=3, under a 12 h light/dark cycle with food and water available ad libitum. At 17:00 on the day prior to dosing all food was removed. On the day of dosing animals were weighed, tail marked and dosed via oral gavage with compound at 3 mg/kg in a volume of 5 mL/kg. Animals were culled at 30 min, 1 h and 4 h post dose via intra-peritoneal administration of pentobarbital. Post mortem blood was withdrawn via cardiac puncture, and briefly stored in K2 EDTA blood tubes on ice before being spun at 14,000 g for 4 min at 4° C. Plasma was withdrawn into a 96 well plate, placed on dry ice and stored at −80° C. Brains were quickly dissected and placed on dry ice before storage at −80° C. Bioanalysis of plasma and brain samples is performed as detailed below. Methods were prepared with guidance from industry standard documents.^i,ii
A 10 mM DMSO stock is used to prepare spiking solutions of test compound in the range of 10-100,000 ng/mL in diluent (MeCN:water, 1;1). Calibration lines are prepared in control male Sprague-Dawley Rat plasma at known concentrations in the range of 1-10000 ng/mL by spiking 2.5 μL of calibration spiking solution into 25 μL control plasma. Experimental samples are thawed to RT and 25 μL aliquots are extracted alongside the calibration lines using protein precipitation (agitation for at least 5 min at RT with 400 μL of MeCN containing 25 ng/mL tolbutamide as an internal standard). Protein precipitates are separated from the extracted test compound by centrifugation at 4000 rpm for 5 min, 4° C. The resulting supernatants are diluted in a ratio of 1:2 with a relevant diluent (e.g. 0.1% formic acid in water or 1:1 MeOH:water). Samples are analysed by UPLC-MS/MS on either an API6500 QTrap or Waters 30 TQS mass spectrometer using previously optimised analytical MRM (multiple reaction monitoring) methods, specific to the test compound. The concentration of test compound in isolated samples is determined following analysis of the samples against the two replicates of the calibration line, injected before and after the sample set with an appropriate regression and weighting used. Only samples within 20% of the expected test concentration are included in the calibration line and any samples that fall outside of the limits of the calibration line will be deemed to be less than or above the limit of quantification (LLoQ/ALoQ).
Pharmacokinetic parameters such as bioavailability (% F), clearance (CL), half-life (T½) and volume of distribution are calculated by non-compartmental analysis using Phoenix Winnonlin 64 software (build 8.0). The bioavailability was calculated from p.o. dosed rats, whereas the clearance and half-life were calculated from i.v. dosed rats. Briefly, in vivo plasma concentrations, timepoints and dose values are imported into the software in a compatible format. Plasma concentration for each animal is plotted against time, and the elimination phase identified and selected. The area under the curve for each plot is calculated using a linear trapezoidal linear interpolation from which pharmacokinetic parameters can subsequently be determined. […] Compounds of the invention have much improved clearance (CL) and half-life (T½) compared to the reference examples.

[2] = Kinetic aqueous solubility assay; assay type: physicochemical; settings: aqueous buffer, kinetic from dmso stock, 0.05M potassium phosphate buffer pH 7.4, 250 μM spike, RT
Method in brief: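 Compound added from DMSO stock into 0.05M potassium phosphate buffer pH 7.4 at 250 μM final, shaken 30 min at RT to induce precipitation (n=2). Appearance noted visually. Filtrate concentration determined by UV peak area against calibration standards.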

[3] = tested on: Salmonella typhimurium, strains TA98 and TA100; experiment: Ames assay (Bacterial Reverse Mutation Test); assay type: cell-based; settings: TA98 and TA100, presence and absence of S-9 mix, up to 5000 μg/plate
Description: Examples 50, 52 and 54 were tested, in vitro, for their ability to induce mutations in 2 histidine dependent auxotrophic mutants of Salmonella typhimurium, strains TA98 and TA100. The mutation screen was conducted using the plate incorporation method and was performed in both the presence and absence of S-9 mix (a liver post-mitochondrial fraction derived from the livers of Aroclor 1254 treated rats). The bacteria were exposed to the test items dissolved in DMSO, which was also the negative Control. The test items were tested up to the regulatory maximum dose level. The dose levels used were 5, 15, 50, 150, 500, 1500 or 5000 μg/plate, unless the highest treatment level of the test items was limited by solubility, or toxicity against the background bacterial lawn. Dose levels were expressed in terms of the free base.
There were no increases of 2-fold or greater in revertant numbers compared with negative Control values in either strain at any dose level in the presence or absence of S-9 mix, so Examples 50, 52 and 54 were not mutagenic in the Bacterial Reverse Mutation (i.e. Ames) Test under the conditions of this screen.

[4] = Brain to plasma (B:P) ratio in rat; assay type: in vivo, Sprague Dawley Rats; settings: male, Sprague Dawley, iv, i.v. 0.5 mg/kg, 5% NMP in 30% HPBC in water, timepoints averaged 0.17-1 h

Molecule `O=C(Nc1ccc(OC(F)(F)Cl)cc1)c1ccc(=O)n(-c2cncc(F)c2)c1` [Example 54, N-[4-[Chloro(difluoro)methoxy]phenyl]-1-(5-fluoro-3-pyridyl)-6-oxo-pyridine-3-carboxamide] has a clearance ([1]; iv) of 4 mL/min/kg, a half-life ([1]; iv, read-out: T½ (converted)) of 7.6 h and a bioavailability ([1]; po, p.o. dose 3 mg/kg) of 97%. The solubility at 30 min [2] was 170 µM (≈ 69.7 µg/mL), the “mutagenicity in the Bacterial Reverse Mutation (Ames) Test” value [3] was “not mutagenic” and the Kp [4] was 0.53.
